Assay results published in patent publication US9439432B2, “Phenylisoxazoline-based compound having herbicidal activity and use thereof” (MOGHU RESEARCH CENTER LTD, priority 2011, dated 2016).

Assays:
Type in all cases: in vivo
Corn [1] = assay: Pre-emergence treatment, phytotoxicity to corn; conditions: 500 g/ha, 4 weeks after spraying, scale 0 to 10 (0: no effects, 10: complete death)
Experimental: (§1) A rectangular plastic pot having a surface area of 300 cm^2 was filled with sandy loam soil and mixed bed soil which were mixed at a ratio of 1:1, and then, barnyardrass (Echinochloa crusgalli), large crabgrass (Digitaria sanguinalis), blackgrass (Alopecurus myosuroides), and annual bluegrass (Poa annua), which are grass weeds, were seeded thereto. In a pot that was prepared as described above, seeds of corn, soybean, cotton, wheat, and rice were seeded. The pots were irrigated, and one day after, chemicals were sprayed thereto. The spraying was performed by using a track sprayer (R&D Sprayer, USA) equipped with a Teejet 8002 (Spraying Systems Co., USA) nozzle, and a spraying amount was adjusted at 300 L/ha. A spraying solution was prepared by dissolving test materials or references in acetone and adding the same amount of 0.2%(v/v) tween 20 aqueous solution thereto. Application rates were 500, 250, 125, and 62.5 g/ha. The pots were placed in a greenhouse in which during day, the temperature was maintained at a temperature of 25 to 30° C., and during night, the temperature was maintained at a temperature of 15 to 25° C., and the pots were periodically irrigated. Four weeks after the spraying the test materials or References, effects and phytotoxicity of the respective weeds and crops were evaluated in a scale of 0 to 10 (0: no effects, 10: complete death), and results thereof are shown in Table 4 below.

Soybean [2] = assay: Pre-emergence treatment, phytotoxicity to soybean; conditions: 500 g/ha, 4 weeks after spraying, scale 0 to 10 (0: no effects, 10: complete death)
Experimental: as §1

Cotton [3] = assay: Pre-emergence treatment, phytotoxicity to cotton; conditions: 500 g/ha, 4 weeks after spraying, scale 0 to 10 (0: no effects, 10: complete death)
Experimental: as §1

Wheat [4] = assay: Pre-emergence treatment, phytotoxicity to wheat; conditions: 500 g/ha, 4 weeks after spraying, scale 0 to 10 (0: no effects, 10: complete death)
Experimental: as §1

Rice [5] = assay: Pre-emergence treatment, phytotoxicity to rice; conditions: 500 g/ha, 4 weeks after spraying, scale 0 to 10 (0: no effects, 10: complete death)
Experimental: as §1

Echinochloa crusgalli [6] = assay: Pre-emergence treatment, herbicidal efficacy on barnyardgrass; conditions: 4 weeks after spraying
Experimental: as §1

Digitaria sanguinalis [7] = assay: Pre-emergence treatment, herbicidal efficacy on large crabgrass; conditions: 4 weeks after spraying, scale 0 to 10
Experimental: as §1

Poa annua [8] = assay: Pre-emergence treatment, herbicidal efficacy on annual bluegrass; conditions: 4 weeks after spraying, scale 0 to 10
Experimental: as §1

Alopecurus myosuroides [9] = assay: Pre-emergence treatment, herbicidal efficacy on blackgrass; conditions: 4 weeks after spraying, scale 0 to 10
Experimental: as §1

Corn [10] = assay: Post-emergence treatment, phytotoxicity to corn; conditions: post-emergence (about 3 leaf stage), 1,000 g/ha, 4 weeks after spraying, scale 0 to 10 (0: no effects, 10: complete death)
Experimental: as §1
(§2) Pots containing crops and weeds were prepared in the same manner as in Example 7, and then, in the second week in which crops and weeds entered into about 3 leaf stage, the test materials and the references were sprayed thereto in the same manner as described above. The rates were 1,000, 500, 250, and 125 g/ha. Four weeks after the spraying of the test materials or the references, herbicidal efficacy and phytotoxicity to the respective weeds and crops were evaluated in a scale of 0 to 10 (0: no effects, 10: complete death).

Soybean [11] = assay: Post-emergence treatment, phytotoxicity to soybean; conditions: post-emergence (about 3 leaf stage), 1,000 g/ha, 4 weeks after spraying, scale 0 to 10 (0: no effects, 10: complete death)
Experimental: as §1, §2

Cotton [12] = assay: Post-emergence treatment, phytotoxicity to cotton; conditions: post-emergence (about 3 leaf stage), 1,000 g/ha, 4 weeks after spraying, scale 0 to 10 (0: no effects, 10: complete death)
Experimental: as §1, §2

Wheat [13] = assay: Post-emergence treatment, phytotoxicity to wheat; conditions: post-emergence (about 3 leaf stage), 1,000 g/ha, 4 weeks after spraying, scale 0 to 10 (0: no effects, 10: complete death)
Experimental: as §1, §2

Rice [14] = assay: Post-emergence treatment, phytotoxicity to rice; conditions: post-emergence (about 3 leaf stage), 1,000 g/ha, 4 weeks after spraying, scale 0 to 10 (0: no effects, 10: complete death)
Experimental: as §1, §2

Echinochloa crusgalli [15] = assay: Post-emergence treatment, herbicidal efficacy on barnyardgrass; conditions: 4 weeks after spraying, scale 0 to 10
Experimental: as §1, §2

Digitaria sanguinalis [16] = assay: Post-emergence treatment, herbicidal efficacy on large crabgrass; conditions: 4 weeks after spraying, scale 0 to 10
Experimental: as §1, §2

Poa annua [17] = assay: Post-emergence treatment, herbicidal efficacy on annual bluegrass; conditions: 4 weeks after spraying, scale 0 to 10
Experimental: as §1, §2

Alopecurus myosuroides [18] = assay: Post-emergence treatment, herbicidal efficacy on blackgrass; conditions: 4 weeks after spraying, scale 0 to 10
Experimental: as §1, §2

[19] = 500 g/ha, scale 0 to 10 (0: no effects, 10: complete death)

CC1(COCc2c(F)cccc2Cl)CC(c2ccccc2Cl)=NO1 (stereo not drawn) [Reference B]
Phytotoxicity, Corn (Corn [1]): 0
Phytotoxicity, Soybean (Soybean [2]): 0
Phytotoxicity, Cotton (Cotton [3]): 0
Phytotoxicity, Wheat (Wheat [4]): 0
Phytotoxicity, Rice (Rice [5]): 0
Herbicidal efficacy, Echinochloa crusgalli (Echinochloa crusgalli [6]; 62.5 g/ha, scale 0 to 10): 2
Herbicidal efficacy, Echinochloa crusgalli (Echinochloa crusgalli [6]; 125 g/ha, scale 0 to 10): 5
Herbicidal efficacy, Echinochloa crusgalli (Echinochloa crusgalli [6]; 250 g/ha, scale 0 to 10): 7
Herbicidal efficacy, Echinochloa crusgalli (Echinochloa crusgalli [6]; [19]): 10
Herbicidal efficacy, Digitaria sanguinalis (Digitaria sanguinalis [7]; 62.5 g/ha): 0
Herbicidal efficacy, Digitaria sanguinalis (Digitaria sanguinalis [7]; 125 g/ha): 4
Herbicidal efficacy, Digitaria sanguinalis (Digitaria sanguinalis [7]; 250 g/ha): 8
Herbicidal efficacy, Digitaria sanguinalis (Digitaria sanguinalis [7]; 500 g/ha): 9
Herbicidal efficacy, Poa annua (Poa annua [8]; 62.5 g/ha): 2
Herbicidal efficacy, Poa annua (Poa annua [8]; 125 g/ha): 4
Herbicidal efficacy, Poa annua (Poa annua [8]; 250 g/ha): 8
Herbicidal efficacy, Poa annua (Poa annua [8]; 500 g/ha): 10
Herbicidal efficacy, Alopecurus myosuroides (Alopecurus myosuroides [9]; 62.5 g/ha): 0
Herbicidal efficacy, Alopecurus myosuroides (Alopecurus myosuroides [9]; 125 g/ha): 0
Herbicidal efficacy, Alopecurus myosuroides (Alopecurus myosuroides [9]; 250 g/ha): 3
Herbicidal efficacy, Alopecurus myosuroides (Alopecurus myosuroides [9]; 500 g/ha): 10
Phytotoxicity, Corn (Corn [10]): 0
Phytotoxicity, Soybean (Soybean [11]): 2
Phytotoxicity, Cotton (Cotton [12]): 0
Phytotoxicity, Wheat (Wheat [13]): 0
Phytotoxicity, Rice (Rice [14]): 0
Herbicidal efficacy, Echinochloa crusgalli (Echinochloa crusgalli [15]; post-emergence, 125 g/ha): 0
Herbicidal efficacy, Echinochloa crusgalli (Echinochloa crusgalli [15]; post-emergence, 250 g/ha): 0
Herbicidal efficacy, Echinochloa crusgalli (Echinochloa crusgalli [15]; post-emergence, 500 g/ha): 1
Herbicidal efficacy, Echinochloa crusgalli (Echinochloa crusgalli [15]; post-emergence, 1,000 g/ha): 7
Herbicidal efficacy, Digitaria sanguinalis (Digitaria sanguinalis [16]; post-emergence, 125 g/ha): 0
Herbicidal efficacy, Digitaria sanguinalis (Digitaria sanguinalis [16]; post-emergence, 250 g/ha): 5
Herbicidal efficacy, Digitaria sanguinalis (Digitaria sanguinalis [16]; post-emergence, 500 g/ha): 6
Herbicidal efficacy, Digitaria sanguinalis (Digitaria sanguinalis [16]; post-emergence, 1,000 g/ha): 8
Herbicidal efficacy, Poa annua (Poa annua [17]; post-emergence, 125 g/ha): 0
Herbicidal efficacy, Poa annua (Poa annua [17]; post-emergence, 250 g/ha): 1
Herbicidal efficacy, Poa annua (Poa annua [17]; post-emergence, 500 g/ha): 4
Herbicidal efficacy, Poa annua (Poa annua [17]; post-emergence, 1,000 g/ha): 6
Herbicidal efficacy, Alopecurus myosuroides (Alopecurus myosuroides [18]; post-emergence, 125 g/ha): 0
Herbicidal efficacy, Alopecurus myosuroides (Alopecurus myosuroides [18]; post-emergence, 250 g/ha): 0
Herbicidal efficacy, Alopecurus myosuroides (Alopecurus myosuroides [18]; post-emergence, 500 g/ha): 0
Herbicidal efficacy, Alopecurus myosuroides (Alopecurus myosuroides [18]; post-emergence, 1,000 g/ha): 3

Cc1ccccc1C1=NOC(C)(COCc2ccccc2)C1 (stereo not drawn) [Reference C]
Phytotoxicity, Corn (Corn [1]): 1
Phytotoxicity, Soybean (Soybean [2]): 1
Phytotoxicity, Cotton (Cotton [3]): 1
Phytotoxicity, Wheat (Wheat [4]): 0
Phytotoxicity, Rice (Rice [5]): 0
Herbicidal efficacy, Echinochloa crusgalli (Echinochloa crusgalli [6]; 62.5 g/ha, scale 0 to 10): 2
Herbicidal efficacy, Echinochloa crusgalli (Echinochloa crusgalli [6]; 125 g/ha, scale 0 to 10): 5
Herbicidal efficacy, Echinochloa crusgalli (Echinochloa crusgalli [6]; 250 g/ha, scale 0 to 10): 8
Herbicidal efficacy, Echinochloa crusgalli (Echinochloa crusgalli [6]; [19]): 10
Herbicidal efficacy, Digitaria sanguinalis (Digitaria sanguinalis [7]; 62.5 g/ha): 0
Herbicidal efficacy, Digitaria sanguinalis (Digitaria sanguinalis [7]; 125 g/ha): 6
Herbicidal efficacy, Digitaria sanguinalis (Digitaria sanguinalis [7]; 250 g/ha): 9
Herbicidal efficacy, Digitaria sanguinalis (Digitaria sanguinalis [7]; 500 g/ha): 10
Herbicidal efficacy, Poa annua (Poa annua [8]; 62.5 g/ha): 2
Herbicidal efficacy, Poa annua (Poa annua [8]; 125 g/ha): 5
Herbicidal efficacy, Poa annua (Poa annua [8]; 250 g/ha): 9
Herbicidal efficacy, Poa annua (Poa annua [8]; 500 g/ha): 9
Herbicidal efficacy, Alopecurus myosuroides (Alopecurus myosuroides [9]; 62.5 g/ha): 0
Herbicidal efficacy, Alopecurus myosuroides (Alopecurus myosuroides [9]; 125 g/ha): 2
Herbicidal efficacy, Alopecurus myosuroides (Alopecurus myosuroides [9]; 250 g/ha): 4
Herbicidal efficacy, Alopecurus myosuroides (Alopecurus myosuroides [9]; 500 g/ha): 6
Phytotoxicity, Corn (Corn [10]): 2
Phytotoxicity, Soybean (Soybean [11]): 0
Phytotoxicity, Cotton (Cotton [12]): 0
Phytotoxicity, Wheat (Wheat [13]): 0
Phytotoxicity, Rice (Rice [14]): 0
Herbicidal efficacy, Echinochloa crusgalli (Echinochloa crusgalli [15]; post-emergence, 125 g/ha): 1
Herbicidal efficacy, Echinochloa crusgalli (Echinochloa crusgalli [15]; post-emergence, 250 g/ha): 3
Herbicidal efficacy, Echinochloa crusgalli (Echinochloa crusgalli [15]; post-emergence, 500 g/ha): 4
Herbicidal efficacy, Echinochloa crusgalli (Echinochloa crusgalli [15]; post-emergence, 1,000 g/ha): 7
Herbicidal efficacy, Digitaria sanguinalis (Digitaria sanguinalis [16]; post-emergence, 125 g/ha): 1
Herbicidal efficacy, Digitaria sanguinalis (Digitaria sanguinalis [16]; post-emergence, 250 g/ha): 3
Herbicidal efficacy, Digitaria sanguinalis (Digitaria sanguinalis [16]; post-emergence, 500 g/ha): 4
Herbicidal efficacy, Digitaria sanguinalis (Digitaria sanguinalis [16]; post-emergence, 1,000 g/ha): 7
Herbicidal efficacy, Poa annua (Poa annua [17]; post-emergence, 125 g/ha): 0
Herbicidal efficacy, Poa annua (Poa annua [17]; post-emergence, 250 g/ha): 2
Herbicidal efficacy, Poa annua (Poa annua [17]; post-emergence, 500 g/ha): 3
Herbicidal efficacy, Poa annua (Poa annua [17]; post-emergence, 1,000 g/ha): 4
Herbicidal efficacy, Alopecurus myosuroides (Alopecurus myosuroides [18]; post-emergence, 125 g/ha): 0
Herbicidal efficacy, Alopecurus myosuroides (Alopecurus myosuroides [18]; post-emergence, 250 g/ha): 0
Herbicidal efficacy, Alopecurus myosuroides (Alopecurus myosuroides [18]; post-emergence, 500 g/ha): 3
Herbicidal efficacy, Alopecurus myosuroides (Alopecurus myosuroides [18]; post-emergence, 1,000 g/ha): 5
